Reference: patent US20060211733A1, “Methods of preventing and treating opioid bowel dysfunction” (Adolor Corporation, priority 2005, published 2006)

Test system: opioid-induced bowel dysfunction in non-malignant pain subjects
Experiment: six-week, randomized, double-blind, placebo-controlled study of three alvimopan dosage regimens
Assay type: in vivo, human
Description: A six-week, randomize, double-blind, placebo-controlled study was conducted to evaluate three dosage regimens for [[(2S)-2-[[(3R,4R)-4-(3-hydroxyphenyl)-3,4-dimethylpiperidin-1-yl]methyl]-3-phenylpropanoyl]amino]acetic acid dihydrate (alvimopan) for the treatment of opioid-induced bowel dysfunction in non-malignant pain subjects, including an evaluation of the improvement of spontaneous bowel movement (SBM) frequency compared to placebo while maintaining an acceptable tolerability profile.
Subjects meeting the initial screening criteria for the study population, and who had been administered chronic opioid therapy for non-malignant pain, were selected.

## C[C@H]1CN(C[C@H](Cc2ccccc2)C(=O)NCC(=O)O)CC[C@@]1(C)c1cccc(O)c1.O.O [alvimopan, [[(2S)-2-[[(3R,4R)-4-(3-hydroxyphenyl)-3,4-dimethylpiperidin-1-yl]methyl]-3-phenylpropanoyl]amino]acetic acid dihydrate]
0.5 mg BID
  efficacy: comparable to 1 mg QD or 1 mg BID
  safety profile: comparable to the placebo
All three doses (0.5 mg BID, 1 mg QD, 1 mg BID), subjects on chronic opioid therapy
  primary and key secondary endpoints (spontaneous bowel movement frequency) compared to placebo: significantly better, both clinically and statistically, than the placebo
All treatment arms
  tolerability: well-tolerated
Based on changes in pain scores or opioid consumption during the study
  analgesic antagonism: no evidence of analgesic antagonism
non-treatment follow-up period
  rebound post active treatment: no evidence of rebound
Over six-week treatment period
  tachyphylaxis: no evidence of tachyphylaxis
six-week treatment period
  onset and duration of treatment effects: significant at week 1 and were sustained over the entire six-week treatment period
